≈ marks a conversion by molar mass, not a printed value.
What was measured:
[1] = test system: human neonatal fibroblasts; test: MTT assay, noncancerous fibroblasts; type: cell-based; settings: 24 h treatment; for IC50: Homo sapiens, Fibroblast
Protocol: (§1) The human gastric adenocarcinoma AGS, cervical cancer HeLa, and acute promyelocytic leukemia HL-60 cells were obtained from the American Type Culture Collection (ATCC, Manassas, VA, USA). Human neonatal fibroblasts were obtained from LGC Standards (Luckenwalde, Germany). The HeLa and AGS lines were cultured in Dulbecco’s modified Eagle’s medium (DMEM) and DMEM/F12 medium, respectively. The HL-60 line was maintained in RPMI-1640 medium. Fibroblasts were cultured in Fibroblast Growth Medium with Supplement Mix. All the media were supplemented with 100 units/mL of penicillin, 100 µg/mL of streptomycin, and 10% (v/v) fetal bovine serum (FBS) (Merck Millipore, Burlington, MA, USA). The cells were incubated at 37 °C and 5% CO2.
(§2) To estimate the cytotoxic effect of the five compounds (4–8), MTT (3-(4,5-dimethylthiazol-2-yl)-2,5-diphenyltetrazolium bromide) assay was used. Oxaliplatin was used as a positive control in this test. All the cell lines were seeded in 96-well plates at a density of 5 × 10^3 cells/well and treated for 24 h with the compounds at concentrations of 0.5–40 µg/mL. Oxaliplatin was tested in the range of 20–400 µg/mL (50–1000 µM). After treatment, the cells were incubated with MTT (0.5 mg/mL; Merck Millipore, Burlington, MA, USA) for 3 h. Then, DMSO was used to dissolve formazan crystals, and the absorbance of the formazan solution was measured with a plate reader (Epoch, BioTek Instruments, Santa Clara, CA, USA). All the results (±standard deviation (SD)) were obtained from six repetitions in at least two independent experiments. The data are expressed as IC50 values (µg/mL).

AGS cells [2] = test: MitoPotential assay (mitochondrial membrane depolarization); type: cell-based, human; settings: 40 µg/mL, 5 h
Protocol: The AGS cells were seeded in a 12-well plate (1 × 10^5 cells/well) and incubated with compound 5 at concentrations of 1, 5, and 10 µg/mL; oxaliplatin at the concentration of 40 µg/mL; and DMSO (0.2%, v/v). After 5 h of exposure, the cells were stained with the Muse MitoPotential Assay Kit (Merck Millipore, Burlington, MA, USA) and analyzed with the Muse Cell Analyzer (Merck Millipore, Burlington, MA, USA). The percentage of depolarized live and dead cells was estimated in the experiments, which were independently repeated three times.

[3] = test system: gastric adenocarcinoma AGS; test: MTT assay, AGS cells; type: cell-based, human; settings: for IC50: Homo sapiens, AGS, 24 h; for selectivity index AGS: SI = IC50 noncancer cells/IC50 cancer cells, in relation to human neonatal fibroblasts
Protocol: as §1, §2

caspase-9 = test: Caspase-Glo 9 activity assay in AGS cells; type: cell-based, human; settings: 20 µg/mL
Protocol: (§3) The AGS cells were seeded in a 96-well plate (5 × 10^3 cells/well) and treated with compound 5 at concentrations of 1, 5, 7, and 10 µg/mL for 24 h; oxaliplatin at the concentration of 20 µg/mL; and DMSO (1%, v/v). The cells were then treated with reagents from Caspase-Glo 8 Assay or Caspase-Glo 9 Assay (Promega, Madison, WI, USA) and measured with the luminometer Glomax Multi + Detection System (Promega, Madison, WI, USA). The experiments were performed in two independent repeats in three repetitions.

cervical cancer HeLa = test: MTT assay, HeLa cells; type: cell-based, human; settings: for IC50: Homo sapiens, HeLa; for selectivity index HeLa: SI = IC50 noncancer cells/IC50 cancer cells, in relation to human neonatal fibroblasts
Protocol: as §1, §2

AGS cells [4] = test: Cell cycle analysis (propidium iodide); type: cell-based, human; settings: 40 µg/mL
Protocol: The AGS cells were seeded in a 6-well plate (5 × 10^5 cells/well) and incubated with compound 5 at concentrations of 1, 5, and 10 µg/mL for 48 h; oxaliplatin at the concentration of 40 µg/mL; and DMSO (0.2%, v/v). After treatment, the cells were stained with propidium iodide from the Muse Cell Cycle Assay Kit (Merck Millipore, Burlington, MA, USA), and the amount of cells in each phase of the cell cycle was determined using the Muse Cell Analyzer (Merck Millipore, Burlington, MA, USA). The experiment was independently repeated three times.

caspase-8 = test: Caspase-Glo 8 activity assay in AGS cells; type: cell-based, human; settings: 20 µg/mL
Protocol: as §3

[5] = test system: Escherichia coli ATCC8739; test: MIC determination; type: cell-based; settings: 37 °C, 48 h
Protocol: (§4) The MIC determinations for Staphylococcus epidermidis ATCC14990, Staphylococcus aureus ATCC6538, Enterococcus faecalis ATCC51299, Klebsiella pneumoniae ATCC13883, Escherichia coli ATCC8739, Salmonella enterica ATCC13076, Helicobacter pylori ATCC43504, Campylobacter jejuni ZMF, Campylobacter coli ZMF, Bacillus cereus PCM 1948,2019 (ATCC11778), and Listeria monocytogenes PCM2191 were performed based on the methodology described by Krauze-Baranowska et al.. The procedure for H. pylori was used in the experiments with Campylobacter strains, and the procedure for B. subtilis was used in the experiments with L. monocytogenes and B. cereus. The tested samples were dissolved in DMSO and diluted with water (concentration of approximately 500 μg/mL). The solutions were diluted geometrically by transferring the mixture/dilution (100 μL) from the first to the twelfth well of the microtiter plate. The final concentrations of samples used for antimicrobial effects ranged from 500 to 0.006 µg/mL. Ampicillin was used as a reference compound in the concentration range of 128 to 0.0625 µg/mL. The tests were incubated at 37 °C for 48 h. The diluent concentration had no effect on the activity of the tested compounds. All experiments were performed in triplicate.

[6] = test system: Bacillus cereus PCM 1948,2019 (ATCC11778); test: MIC determination; type: cell-based; settings: 37 °C, 48 h
Protocol: as §4

[7] = test system: Staphylococcus epidermidis ATCC14990; test: MIC determination; type: cell-based; settings: 37 °C, 48 h
Protocol: as §4

[8] = test system: Helicobacter pylori ATCC43504; test: MIC determination; type: cell-based; settings: 37 °C, 48 h
Protocol: as §4

Campylobacter coli ZMF = test: MIC determination; type: cell-based; settings: 37 °C, 48 h
Protocol: as §4

[9] = test system: Staphylococcus aureus ATCC6538; test: MIC determination; type: cell-based; settings: 37 °C, 48 h
Protocol: as §4

[10] = test system: Klebsiella pneumoniae ATCC13883; test: MIC determination; type: cell-based; settings: 37 °C, 48 h
Protocol: as §4

[11] = test system: Enterococcus faecalis ATCC51299; test: MIC determination; type: cell-based; settings: 37 °C, 48 h
Protocol: as §4

[12] = test system: Listeria monocytogenes PCM2191; test: MIC determination; type: cell-based; settings: 37 °C, 48 h
Protocol: as §4

[13] = test system: Salmonella enterica ATCC13076; test: MIC determination; type: cell-based; settings: 37 °C, 48 h
Protocol: as §4

Campylobacter jejuni ZMF = test: MIC determination; type: cell-based; settings: 37 °C, 48 h
Protocol: as §4

[14] = test system: cancer cells (HeLa, HL-60, AGS); test: MTT assay, cancer cells taken together; type: cell-based, human; settings: HL-60 and AGS together
Protocol: as §1, §2

neutrophil elastase = target: T1, neutrophil elastase (Sus scrofa, UniProt P00772); test: Elastase assay (SANA substrate); type: biochemical, porcine; settings: Tris-HCl pH 8.0, SANA substrate; read-out: neutrophil elastase inhibition IC50 (converted)
T1 construct: purchased Sigma Chemical Co. (St. Louis, MO, USA)
T1 sequence (P00772 27-266): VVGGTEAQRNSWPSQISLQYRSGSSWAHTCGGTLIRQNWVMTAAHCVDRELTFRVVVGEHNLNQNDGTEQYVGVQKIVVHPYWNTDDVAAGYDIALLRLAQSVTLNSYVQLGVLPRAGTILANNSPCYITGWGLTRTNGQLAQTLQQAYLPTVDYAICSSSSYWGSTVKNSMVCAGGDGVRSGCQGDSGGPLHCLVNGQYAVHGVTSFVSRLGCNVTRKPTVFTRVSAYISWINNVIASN
Protocol: The elastase analysis was performed according to the spectrophotometric method with oleanolic acid as a reference. The reaction mixture (Tris-HCl buffer (pH 8.0), 1.0 μg/mL porcine pancreatic elastase, and different concentrations of chalcone derivatives was preincubated at room temperature for 15 min. Afterwards, the addition of the substrate—SANA—started the reaction. Product formation changes were analyzed at λ = 410 nm for 20 min every 20 s (Epoch, BioTek Instruments, Santa Clara, CA, USA). The control was composed of Tris-HCl buffer (pH 8.0), an appropriate concentration of the chalcone derivative, and SANA.

[15] = test system: acute promyelocytic leukemia HL-60; test: MTT assay, HL-60 cells; type: cell-based, human; settings: for IC50: Homo sapiens, HL-60, 24 h; for selectivity index HL-60: SI = IC50 noncancer cells/IC50 cancer cells, in relation to human neonatal fibroblasts
Protocol: as §1, §2

[16] = DPPH radical scavenging assay; settings: concentration of 800 µg/mL
Protocol: The DPPH radical scavenging assay of samples (ligands or complexes) was performed with ascorbic acid as a standard. Different concentrations of chalcone derivatives, dissolved in DMSO, were mixed with the same amount of 0.06 mM DPPH methanolic solution and incubated at room temperature in the dark for 30 min. The absorbance was analyzed at λ = 517 nm using a 96-well microplate reader (Epoch, BioTek System, Winooski, VT, USA). The control was composed of DPPH and DMSO. DPPH inhibition was calculated according to the following Formula (2):DPPH Inhibition (%) = [(Acontrol − Asample)/Acontrol] × 100%(2)

MIC [5] [µg/mL] | MIC [6] [µg/mL] | MIC [7] [µg/mL] | MIC [8] [µg/mL] | MIC (Campylobacter coli ZMF) [µg/mL] | MIC [9] [µg/mL] | MIC [10] [µg/mL] | MIC [11] [µg/mL] | MIC [12] [µg/mL] | MIC [13] [µg/mL] | MIC (Campylobacter jejuni ZMF) [µg/mL] | IC50 ([3]; MTT, 24 h treatment) [µg/mL] | IC50 (cervical cancer HeLa; MTT, 24 h treatment) [µg/mL] | IC50 (neutrophil elastase) [µM] | IC50 ([15]; MTT, 24 h treatment) [µg/mL] | SMILES | IC50 [1] [µg/mL] | selectivity index AGS [3] | selectivity index HeLa (cervical cancer HeLa) | selectivity index HL-60 [15] | % of DPPH radical inhibition [16] [%] | further results
 |  |  |  |  |  |  |  |  |  |  |  |  |  |  | O=C1[O][Pt]2([NH][C@@H]3CCCC[C@H]3[NH]2)[O]C1=O [Oxaliplatin, reference compound] |  |  |  |  |  | IC50 Fibroblasts [1]: 95.79 ± 3.24 µg/mL; changes in percentages of live, depolarized, and dead cells versus control (AGS cells [2]): no observable changes; IC50 AGS ([3]; MTT, 24 h treatment): 17.90 ± 1.20 µg/mL; caspase-9 activity (in words) (caspase-9): notable increase; IC50 HeLa (cervical cancer HeLa; MTT, 24 h treatment): 35.76 ± 1.72 µg/mL; amount of cells in subG0 phase (in words) (AGS cells [4]): significant increase; cells in G0/G1 phase (AGS cells [4]): 35.6%; cells in G2/M phase (AGS cells [4]): 32.4%; cells in S phase (AGS cells [4]): 14.2%; caspase-8 activity (in words) (caspase-8): notable increase
> 500 | > 500 | > 500 | > 500 | > 500 | > 500 | > 500 | > 500 | > 500 | > 500 | > 500 | 4.49 ± 0.44 (≈ 9.67 µM) | 8.65 ± 0.52 (≈ 18.6 µM) | 181 | 1.69 ± 0.2 (≈ 3.64 µM) | Cc1cc(S(=O)(=O)Nc2ccc(C(=O)/C=C/c3ccc(F)cc3)cc2)c(Cl)cc1Cl [Compound 6, (E)-2,4-Dichloro-N-{4-[3-(4-Fluorophenyl)acryloyl]phenyl}-5-Methylbenzenesulfonamide] | 27 ± 2.29 (≈ 58.1 µM) | 6.01 | 3.12 | 15.98 | 21.85 ± 0.22 | IC50 toward cancer cells [14]: weaker activity
> 500 | > 500 | > 500 | > 500 | > 500 | > 500 | > 500 | > 500 | > 500 | > 500 | > 500 | < 1 | 6.34 ± 0.04 (≈ 13.2 µM) | 53.3 | < 1.57 | Cc1cc(S(=O)(=O)Nc2ccc(C(=O)/C=C/c3ccc(Cl)cc3)cc2)c(Cl)cc1Cl [Compound 7, (E)-2,4-Dichloro-N-{4-[3-(4-Chlorophenyl)acryloyl]phenyl}-5-Methylbenzenesulfonamide] | 29.9 ± 3.27 (≈ 62.3 µM) | 19.08 | 4.72 | 20.51 | 18.70 ± 0.04 | IC50 HL-60 ([15]; MTT, 24 h treatment): 1.46 ± 0.20 µg/mL (≈ 3.04 µM)

Reference: publication PMC10778824, “New Chalcone Derivatives Containing 2,4-Dichlorobenzenesulfonamide Moiety with Anticancer and Antioxidant Properties” (International Journal of Molecular Sciences, 2023)
